Laboratory results from patent US8030304B2, “Thiazole pyrazolopyrimidines CRF1 receptor antagonists” (Eli Lilly and Company, priority 2006, dated 2011).
Residue numbers refer to the chain shown, from its start. One block for each compound: values may come before it.

Columns and labels:
[1] = Bioavailability and pharmacokinetic properties (volume of distribution, plasma clearance)
From the text: (§1) Bioavailability and Pharmacokinetic Properties
(§2) The volume of distribution (Vdist) relates the amount of the drug in the body to the concentration of the drug in the blood or plasma. […] The volume of distribution reflects the extent to which the drug is present in the extravascular tissue. A large volume of distribution reflects the tendency of a compound to bind to the tissue components compared with plasma protein binding.
(§3) To test for volume of distribution, Male Sprague Dawley rats (N=3) are administered a single 1 mg/kg intravenous dose of compound. Multiple plasma samples are collected at time points from 0.08 to 24 hours post-dose. The plasma samples are analyzed by LC/MS/MS to determine the plasma concentrations. Plasma pharmacokinetic calculations are performed to determine the pharmacokinetic parameters including Vdist and plasma clearance (Clp).
(§4) Further, the plasma clearance (CLp) is a measure of the rate of removal of the drug from the body. Following an intravenous dose and first-order kinetics, the plasma clearance may be determined using the following equation: CLp=Dose/AUC, where
(§5) AUC is the total area under the curve that describes the concentration of the drug in the plasma as a function of time from zero to infinity.

human CRF2 = target: T1, human CRF2 (Homo sapiens, UniProt Q13324); assay: CRF2 filter binding assay; conditions: at a concentration of 50 μM
T1 construct: expressed in transfected cells
T1 sequence (Q13324 1-411): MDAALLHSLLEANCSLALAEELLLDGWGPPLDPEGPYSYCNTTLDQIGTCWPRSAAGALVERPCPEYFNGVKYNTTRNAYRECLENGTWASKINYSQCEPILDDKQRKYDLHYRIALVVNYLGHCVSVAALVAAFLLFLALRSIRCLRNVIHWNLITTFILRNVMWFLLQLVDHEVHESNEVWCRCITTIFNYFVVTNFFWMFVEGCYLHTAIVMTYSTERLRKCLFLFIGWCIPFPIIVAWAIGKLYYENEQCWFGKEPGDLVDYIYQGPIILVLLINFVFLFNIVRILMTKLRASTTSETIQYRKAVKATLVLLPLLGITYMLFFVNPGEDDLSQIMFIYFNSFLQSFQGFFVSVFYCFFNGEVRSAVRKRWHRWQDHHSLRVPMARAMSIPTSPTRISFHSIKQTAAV
Protocol: CRF2 Filter Binding Assay
The limitations of plasmid-based human CRF2 expression, in terms of generating a recombinant cell line with sufficient receptor density to develop a binding assay, are overcome by using a Phoenix retroviral expression system licensed from Stanford. The stable HEK-hCRF2 cell line is used to prepare membranes and binding reactions (200 μL) are set up as follows: 50 μL of ^125I-sauvagine (0.2 nM final concentration), 50 μL compound and 100 μL CRF2 membrane (25 μg/reaction). The reactions are incubated at room temperature for 2 hours and then terminated by filtration through pre-treated FB Millipore glass fiber filter plates (96 well). The plates are washed twice with ice-cold assay buffer (50 mM tris, 12.5 mM NaCl, 1 mM EDTA, 10 mM MgCl2, 0.05% BSA, pH 7.2), air dried over night and counted with 100 μL Microscint 40 in a MicroBeta counter. Non-specific binding (NSB) is determined in the presence of 0.5 μM non-labeled sauvagine. Alternatively, compounds are evaluated using a Scintillation Proximity assay. […] Bound radioactivity is assessed using a Wallac Trilux scintillation counter. Binding is assessed typically using triplicate determinations and the median data points plotted by Graph Pad Prism. […]

in vivo = conditions: male, Sprague Dawley, rat, iv
From the text: as §1, §2, §3, §4, §5

human CRF1 = target: T2, human CRF1 (Homo sapiens, UniProt P34998); assay: CRF1 filter binding assay; conditions: HEK-hCRF1 membranes, 125I-sauvagine; read-out: Ki (inhibition constant)
T2 construct: expressed in transfected cells
T2 sequence (P34998 24-415): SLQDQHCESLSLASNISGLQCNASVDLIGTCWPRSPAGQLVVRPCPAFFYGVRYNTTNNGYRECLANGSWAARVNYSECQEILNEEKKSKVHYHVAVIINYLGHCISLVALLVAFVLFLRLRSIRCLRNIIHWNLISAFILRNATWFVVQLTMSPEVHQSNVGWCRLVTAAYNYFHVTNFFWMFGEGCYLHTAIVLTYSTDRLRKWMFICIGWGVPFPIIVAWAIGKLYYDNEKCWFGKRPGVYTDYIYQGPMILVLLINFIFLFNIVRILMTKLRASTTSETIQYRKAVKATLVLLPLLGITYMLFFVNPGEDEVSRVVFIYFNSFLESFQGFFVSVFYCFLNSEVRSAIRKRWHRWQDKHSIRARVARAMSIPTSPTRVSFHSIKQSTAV
Protocol: CRF1 Filter Binding Assay
The limitations of plasmid-based human CRF1 expression, in terms of generating a recombinant cell line with sufficient receptor density to develop a binding assay, are overcome by using a Phoenix retroviral expression system licensed from Stanford. The stable HEK-hCRF1 cell line is used to prepare membranes and binding reactions (200 μL) are set up as follows: 50 μL of ^125I-sauvagine (0.2 nM final), 50 μL compound and 100 μL CRF1 membrane (25 μg/reaction). The reactions are incubated at room temperature for 2 h and then terminated by filtration through pre-treated FB Millipore glass fiber filter plates (96 well). The plates are washed twice with ice-cold assay buffer (50 mM tris, 12.5 mM NaCl, 1 mM EDTA, 10 mM MgCl2, 0.05% BSA, pH 7.2), air dried over night and counted with 100 μL Microscint 40 in a MicroBeta counter. Non-specific binding (NSB) is determined in the presence of 0.5 μM non-labeled sauvagine. Triplicate determinations are typically run and the median data points plotted by Graph Pad Prism.

[2] = target: T3, binding of 125I-sauvagine to the cerebellum (Rattus norvegicus, UniProt P35353); assay: In vivo potency assessment using ex vivo binding; conditions: oral route
T3 construct: from tissue; host or cells: rat cerebellum
T3 sequence (P35353 24-415): T2 sequence (P34998 24-415) with H6R, S9N, A13T, I16V, M153V, G163A, I209V, Y229H, H356R
Protocol: In Vivo Potency Assessment Using Ex Vivo Binding
To assess in vivo potency, a compound of the present invention is evaluated using ex vivo binding. Using the procedures as provided in D. R. Gehlert et al., EJP 509: 145-153 (2005), a compound is administered to a rat via the oral route.

[3] = male, Sprague Dawley, rat, plasma, iv, 1 mg/kg

Vd [1, 3]: 114 L/kg
clearance [1, 3]: 83 mL/min/kg
SMILES: CCCCN(CC)c1nc(C)nc2c1c(C)cn2-c1c(C)cc(C)cc1C [CP154526]

inhibition at 50 µM (human CRF2): 11%
clearance (in vivo): 23.6 mL/min/kg
Vd (in vivo; 1 mg/kg): 7.2 L/kg
Ki (human CRF1): 6.2 nM
inhibition at 10 mg/kg [2]: 65%
SMILES: CCC(CC)c1cc(C)nc2c(-c3sc(N(C)C)nc3Cl)c(C)nn12 [Example 15, {4-Chloro-5-[7-(1-ethyl-propyl)-2,5-dimethyl-pyrazolo[1,5-a]pyrimidin-3-yl]-thiazol-2-yl}-dimethyl-amine]

rat Vdist (volume of distribution) ([1]; single intravenous dose of 1 mg/kg, analyzed separately): 76 L/kg
SMILES: CCCN(CCC)c1cc(C)nc2c(-c3cnc(N(C)C)cc3C)c(C)nn12 [NBI30775]
